Results published in article PMC10669426, “Exploring the Use of Hydroxytyrosol and Some of Its Esters in Food-Grade Nanoemulsions: Establishing Connection between Structure and Efficiency” (Antioxidants, 2023).

Legend:
[1] = DPPH radical assay, EC50 values at different reaction times; type: biochemical; conditions: T = 25 °C
Method: To check if the same insignificant changes hold for HT derivatives, we further tested the point by determining the EC50 values for the different HT derivatives. A UV-Vis Powerwave XS Microplate Reader (96-well microplate, Bio-Tek Instruments, Inc., Winooski, VT, USA) was employed to monitor the loss of DPPH^● (from reaction with each AO) at T = 25.0 ± 0.1 °C. The absorbance of each well was recorded (λ = 515 nm) at 60 s intervals for a 4000 s period, Figure 3.
Each set of experiments was performed in triplicate and, in some instances, in quadruplicate, and the reported EC50 values in Table 1 (determined from data in Figure 3) are the average of these repetitions.

[2] = Chemical kinetic method (pseudophase model) with the probe 16-ArN2^+ in intact fish oil-in-water nanoemulsions; type: physicochemical; conditions: intact 1:9 fish oil-in-water nanoemulsions, T = 25 °C; for 10^2 kI, interfacial rate constant for the reaction between 16ArN2^+ and AO: values given as 10^2 kI
Method: The distribution of HT and its derivatives was determined by using a chemical kinetic method, as have been published elsewhere based on the reaction between a chemical probe (16-ArN2^+, specifically localized at the interface) and the AOs. The changes detected in the observed rate constant for this reaction (kobs) at different surfactant volume fractions (ΦI) were evaluated according to the pseudophase kinetic model developed by Romsted and Bravo-Díaz and explained in detail elsewhere.
The chemical probe 16-ArN2^+ reacts, virtually, with any antioxidant as described elsewhere and the reaction can be monitored by UV-Vis with the aid of a specially developed derivatization protocol. […] The absorbance of the resulting azo dye was monitored at λ = 572 nm once diluted with a 50:50 (v:v) BuOH:EtOH mixture. This dilution step is critical and its purpose is to obtain an optically transparent, homogeneous solution. Details of the complete procedure have been published elsewhere.
Succinctly, after initiating the reaction between 16-ArN2^+ and the antioxidants in the intact emulsion, constant volumes (200 µL) of the nanoemulsion were extracted at given time periods and rapidly added to numbered glass tubes to quench the reaction. Because the quenching reaction is much faster than the reaction between 16-ArN2^+ and the antioxidants, the absorbance of the formed azo dye is proportional to the concentration of unreacted 16-ArN2^+ so that the decrease in absorbance of the azo dye with time can be used to determine kobs. For this purpose, we fitted the experimental (absorbance, time) pairs of data to the integrated first-order rate equation by using a non-linear least squares method provided by a commercial computer program. Figure 4 illustrates the typical variations of the absorbance of the azo dye versus time as determined in the intact fish oil-in-water nanoemulsions. The solid lines are the fitting curves to the integrated and linearized first-order equations.
The relationships between kobs and the partition constants of the AOs between the oil-interfacial, PO^I, and aqueous-interfacial, PW^I, regions are given by Equations (1)–(3), and the partition constants were estimated by fitting the variations of 1/kobs, with ΦI at constant stoichiometric concentration of the antioxidant ([AOT] = 2.5 × 10^−3 M), ΦW (ΦW = 0.9) and ΦO (ΦO = 0.1) as explained in detail elsewhere.
The experimental (kobs, ΦI) pairs of data were fitted to the equations derived from the pseudophase model Equations (1)–(3), which hold for very hydrophilic (Equation (1)) and very hydrophobic (Equation (2)) antioxidants and for those of intermediate hydrophobicity (3).

[3] = Distribution and effective interfacial concentrations of AOs in fish oil nanoemulsions, calculated from partition constants; type: physicochemical; conditions: for order of the percentages of AOs in the interfacial region (%AOI): at any ΦI value
Text: The values of the partition constants PO^I and PW^I in Table 3 were used to estimate the distribution of the AOs in the intact nanoemulsions. Details of the calculations and the equations employed are not given here to keep focus and for the sake of clarity, but can be easily found elsewhere.
In Equation (5), nT represents the total number of moles of the antioxidant, VT the total volume of the emulsion, and ΦI is the interfacial volume fraction. To distinguish between the stoichiometric and effective concentrations, we employed square brackets, [ ], defined as molarity of total emulsion volume, and parenthesis, ( ), defined as molarity of the interfacial region, respectively. The reader must be aware that VI, is the sum of all of the interfacial volumes of all of the aggregates present in the system, and that it matches that of the total volume of the added surfactant. Emulsion droplets and other association colloids as micelles present in the system are broken and reformed at rates much faster than those of the relevant chemical reactions, allowing rapid transfer of materials between them. That is, they are in dynamic equilibrium. (5) (AOI)=nI/VI=nT(%AOI)/VI=nT/VT(%AOI)/VI/VT=[AOT](%AOI)/ΦI

[4] = Relative oxidative stability of fish oil nanoemulsions, formation of conjugated dienes (AOCS Ti-1a-64); conditions: for antioxidant efficiency order (time needed to reach 0.5% conjugated dienes): 1:9 fish nanoemulsions, T = 25 °C, [AOT] = 0.1 mM
Text: Accelerated tests are commonly used to assess the relative stability of emulsions because of their reproducibility. In the present work, we used the AOCS official standard method Ti-1a-64 to determine the relative antioxidant efficiency of the antioxidants under a set of standardized conditions. For this purpose, we measured the formation of conjugated dienes (CD) with time following the procedure described in detail elsewhere. […] We, however, controlled their stability visually; no phase separation was detected.
We estimated the relative oxidative stability of fish oil nanoemulsions by controlling the extent of lipid oxidation under a set of standardized conditions. For this purpose, we measured the level of oxidation on the basis of the production of conjugated dienes (CD) with time. The method, identical to the AOCS official standard method Ti-1a-64, is rather sensitive and reproducible and suitable for monitoring the early stages of lipid oxidation. Figure 12A is illustrative of a typical oxidation kinetics experiment and where one can observe a constant small increase (lag time) up to a sudden increase in the formation of conjugated dienes (CD). The relative efficiency was assessed by determining the necessary time to reach an increase in CD production of 0.5%. Further details on the experimental procedure and calculations can be found elsewhere.

[5] = Shake-flask partition in binary stripped fish oil–water mixtures in the absence of emulsifier; type: physicochemical; conditions: binary 1:9 (v:v) fish oil:water mixture, 25 °C; for partition constant PW^O: average of four runs; for %AOO, percentage present in the oil phase / %AOW, percentage present in the aqueous phase: no emulsifier, pH 3.0 buffer
Method: The partition constants, PW^O, of HT and some of its esters were determined, by employing the shake-flask method, in binary stripped fish oil–water mixtures in the absence of emulsifier. Sets of four 1:9 (v:v, oil:water, total volume = 10 mL) binary mixtures, each one containing the same AO, were prepared by stirring the mixture at high speed for 1 min. HT and the C1–C3 derivatives were dissolved in the buffered aqueous solution; meanwhile, those with longer alkyl chains were dissolved in the fish oil phase. The final stoichiometric concentration of AOs was 3.5 mM in all samples. Mixtures were stirred at high speed for 2 min and then equilibrated at T = (25 ± 1) °C for at least 24 h in the dark. The resulting two phases were then divided by centrifugation. Concentrations of the AOs in each phase were estimated by interpolation in previously prepared calibration curves by employing UV-Vis (λ = 285 nm). Further details on the method have been published elsewhere.
The reported PW^O values in Table 2 are average of the four runs. The PW^O values for the more hydrophobic antioxidants are not reported because of the high uncertainty in their values, as the ratio of percentages may be susceptible to small errors in the determination of the values of the AO concentrations in the aqueous phase. In any case, PW^O values higher than 150 indicate that AOs are, essentially, water insoluble.

| SMILES | EC50 ([1]; t = 5 min) [mol AO/mol DPPH^●] | EC50 ([1]; t = 15 min) [mol AO/mol DPPH^●] | EC50 ([1]; t = 30 min) [mol AO/mol DPPH^●] | EC50 ([1]; t = 60 min) [mol AO/mol DPPH^●] | partition constant PO^I (oil-interfacial) [2] | 10^2 kI, interfacial rate constant for the reaction between 16ArN2^+ and AO [2] [M^−1 s^−1] | effective interfacial concentration relative to the stoichiometric concentration ([3]; lowest surfactant fraction ΦI = 0.005, constant o/w ratio) | increase in the oxidative stability of nanoemulsion compared with the control ([4]; ΦI = 0.005) [times] | partition constant PW^O [5] | %AOO, percentage present in the oil phase [5] [%] | %AOW, percentage present in the aqueous phase [5] [%] | partition constant PW^I (aqueous-interfacial) [2] | order of the percentages of AOs in the interfacial region (%AOI) [3] | antioxidant efficiency order (time needed to reach 0.5% conjugated dienes) [4] | decrease in efficiency on an increase in ΦI of ∼8 times ([4]; increase in ΦI of ∼8 times) [times] |
| --- | --- | --- | --- | --- | --- | --- | --- | --- | --- | --- | --- | --- | --- | --- | --- |
| CCCCCCCC(=O)OCCc1ccc(O)c(O)c1 [C8] | 0.295 ± 0.005 | 0.265 ± 0.005 | 0.256 ± 0.007 | 0.239 ± 0.003 | 22 ± 2 | 21.0 ± 0.3 | about 100 times | ~10 | – | – | – | – | %HTI < %C3I < %C16I < %C12I < %C10I < %C8I | C8 > C10 > C16 > C3 > HT >> control | ~1.5 |
| CCC(=O)OCCc1ccc(O)c(O)c1 [C3] | 0.345 ± 0.004 | 0.299 ± 0.002 | 0.289 ± 0.005 | 0.280 ± 0.003 | 28 ± 3 | 27.7 ± 4.7 | – | – | 7.8 ± 0.4 | 46.37 | 53.63 | 229 ± 40 | %HTI < %C3I < %C16I < %C12I < %C10I < %C8I | C8 > C10 > C16 > C3 > HT >> control | – |
| O=COCCc1ccc(O)c(O)c1 [C1] | 0.338 ± 0.005 | 0.296 ± 0.003 | 0.288 ± 0.003 | 0.277 ± 0.003 | – | – | – | – | – | – | – | – | – | – | – |

Continued, in another order:

| EC50 ([1]; t = 5 min) [mol AO/mol DPPH^●] | EC50 ([1]; t = 15 min) [mol AO/mol DPPH^●] | EC50 ([1]; t = 30 min) [mol AO/mol DPPH^●] | EC50 ([1]; t = 60 min) [mol AO/mol DPPH^●] | partition constant PO^I (oil-interfacial) [2] | 10^2 kI, interfacial rate constant for the reaction between 16ArN2^+ and AO [2] [M^−1 s^−1] | effective interfacial concentration relative to the stoichiometric concentration ([3]; lowest surfactant fraction ΦI = 0.005, constant o/w ratio) | increase in the oxidative stability of nanoemulsion compared with the control ([4]; ΦI = 0.005) [times] | partition constant PW^O [5] | %AOO, percentage present in the oil phase [5] [%] | %AOW, percentage present in the aqueous phase [5] [%] | partition constant PW^I (aqueous-interfacial) [2] | SMILES | order of the percentages of AOs in the interfacial region (%AOI) [3] | antioxidant efficiency order (time needed to reach 0.5% conjugated dienes) [4] | decrease in efficiency on an increase in ΦI of ∼8 times ([4]; increase in ΦI of ∼8 times) [times] |
| --- | --- | --- | --- | --- | --- | --- | --- | --- | --- | --- | --- | --- | --- | --- | --- |
| 0.331 ± 0.011 | 0.305 ± 0.006 | 0.302 ± 0.011 | 0.298 ± 0.007 | 13 ± 2 | 25.0 ± 0.8 | – | – | – | – | – | – | CCCCCCCCCCCCCCCC(=O)OCCc1ccc(O)c(O)c1 [C16] | %HTI < %C3I < %C16I < %C12I < %C10I < %C8I | C8 > C10 > C16 > C3 > HT >> control | – |
| 0.345 ± 0.005 | 0.319 ± 0.004 | 0.309 ± 0.011 | 0.294 ± 0.006 | 16 ± 2 | 25.3 ± 0.7 | – | – | – | – | – | – | CCCCCCCCCCCC(=O)OCCc1ccc(O)c(O)c1 [C12] | %HTI < %C3I < %C16I < %C12I < %C10I < %C8I | – | – |
| 0.323 ± 0.005 | 0.287 ± 0.004 | 0.279 ± 0.004 | 0.258 ± 0.004 | – | 14.2 ± 0.1 | – | – | 0.3 ± 0.1 | 3.01 | 96.99 | 71 ± 12 | OCCc1ccc(O)c(O)c1 [HT, Hydroxytyrosol] | %HTI < %C3I < %C16I < %C12I < %C10I < %C8I | C8 > C10 > C16 > C3 > HT >> control | – |
